Reference: US20100016360A1 (WYETH, priority 2008, published 2010)

Columns and labels:
Type in all cases: in vitro ADME
[1] = target: CYP2C9 (Homo sapiens, UniProt P11712); test: CYP2C9 inhibition
[2] = target: CYP3A4 (Homo sapiens, UniProt P08684); test: CYP3A4 inhibition
[3] = target: CYP2D6 (Homo sapiens, UniProt P10635); test: CYP2D6 inhibition
Chain of CYP2D6 (P10635 whole entry, species assumed): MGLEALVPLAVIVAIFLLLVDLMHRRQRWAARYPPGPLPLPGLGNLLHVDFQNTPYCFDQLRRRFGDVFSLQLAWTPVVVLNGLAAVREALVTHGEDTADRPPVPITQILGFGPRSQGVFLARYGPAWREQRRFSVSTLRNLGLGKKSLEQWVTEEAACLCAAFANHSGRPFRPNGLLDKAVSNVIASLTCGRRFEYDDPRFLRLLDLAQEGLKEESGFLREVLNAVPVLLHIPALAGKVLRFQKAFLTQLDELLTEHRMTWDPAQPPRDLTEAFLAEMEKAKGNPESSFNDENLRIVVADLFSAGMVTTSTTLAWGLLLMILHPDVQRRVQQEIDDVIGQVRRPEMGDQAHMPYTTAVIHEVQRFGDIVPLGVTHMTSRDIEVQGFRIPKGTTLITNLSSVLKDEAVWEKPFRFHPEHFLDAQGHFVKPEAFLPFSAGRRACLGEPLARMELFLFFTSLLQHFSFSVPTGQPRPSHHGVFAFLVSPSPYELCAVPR

Chain of CYP2C9 (P11712 whole entry, species assumed): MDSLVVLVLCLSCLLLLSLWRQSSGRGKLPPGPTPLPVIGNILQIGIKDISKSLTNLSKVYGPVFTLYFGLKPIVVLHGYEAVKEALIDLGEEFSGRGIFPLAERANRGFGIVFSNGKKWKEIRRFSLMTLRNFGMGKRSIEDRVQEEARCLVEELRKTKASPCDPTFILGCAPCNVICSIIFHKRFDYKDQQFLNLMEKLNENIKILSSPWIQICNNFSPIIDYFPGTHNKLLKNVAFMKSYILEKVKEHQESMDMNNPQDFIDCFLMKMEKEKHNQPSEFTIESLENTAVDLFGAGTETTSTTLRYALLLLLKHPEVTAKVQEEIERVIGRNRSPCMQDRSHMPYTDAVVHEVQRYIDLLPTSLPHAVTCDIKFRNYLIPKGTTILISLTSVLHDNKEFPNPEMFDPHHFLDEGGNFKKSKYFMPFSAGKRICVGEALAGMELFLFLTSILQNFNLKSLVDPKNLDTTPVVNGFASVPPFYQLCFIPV
Chain of CYP3A4 (P08684 whole entry, species assumed): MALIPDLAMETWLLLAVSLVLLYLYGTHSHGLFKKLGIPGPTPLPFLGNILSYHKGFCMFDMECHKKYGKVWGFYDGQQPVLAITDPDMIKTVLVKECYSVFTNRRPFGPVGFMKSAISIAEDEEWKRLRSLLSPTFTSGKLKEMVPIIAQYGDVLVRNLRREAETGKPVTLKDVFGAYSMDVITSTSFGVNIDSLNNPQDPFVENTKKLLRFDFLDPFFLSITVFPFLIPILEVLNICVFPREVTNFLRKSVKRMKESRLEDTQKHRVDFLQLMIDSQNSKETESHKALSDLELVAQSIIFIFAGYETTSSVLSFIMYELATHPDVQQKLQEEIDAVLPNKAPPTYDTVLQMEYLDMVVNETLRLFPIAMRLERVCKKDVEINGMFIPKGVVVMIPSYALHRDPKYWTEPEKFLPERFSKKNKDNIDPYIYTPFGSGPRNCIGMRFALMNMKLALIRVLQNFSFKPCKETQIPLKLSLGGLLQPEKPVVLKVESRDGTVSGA

COc1ncccc1-c1ccc(NC(=O)NCCCCN2CCCCC2)cc1
CYP2C9 % inhibition [1]: −36% | CYP3A4 % inhibition [2]: −21% | CYP2D6 % inhibition [3]: 8%
